Source: ChEMBL document CHEMBL3797164, “Transfer of SAR information from hypotensive indazole to indole derivatives acting at α-adrenergic receptors: In vitro and in vivo studies” (Eur J Med Chem, 2016)

Key:
Rattus norvegicus [1] = experiment: Neurotoxicity in Sprague-Dawley rat assessed as induction of hind limb flexion at 1000 to 1500 ug/kg, ip after 15 to 30 mins by LORR test; type: toxicity, organism-based, Hindlimb; conditions: in vivo
Rattus norvegicus [2] = experiment: Neurotoxicity in Sprague-Dawley rat assessed as induction of forpaw grasping reflex at 1000 to 1500 ug/kg, ip after 15 to 30 mins by LORR test; type: toxicity, organism-based; conditions: in vivo
Rattus norvegicus [3] = experiment: Neurotoxicity in Sprague-Dawley rat assessed as induction of sedative-hypnotic state at 10 to 500 ug/kg, ip after 30 mins by LORR test; type: toxicity, organism-based; conditions: in vivo, 0.5 h
Rattus norvegicus [4] = experiment: Neurotoxicity in Sprague-Dawley rat assessed as induction of resistance to lateral push at 1000 to 1500 ug/kg, ip after 15 to 30 mins by LORR test; type: toxicity, organism-based; conditions: in vivo
Rattus norvegicus [5] = experiment: Neurotoxicity in Sprague-Dawley rat assessed as exploratory behaviour changes at 10 to 2000 ug/kg, ip after 30 mins by LORR test; type: toxicity, organism-based; conditions: in vivo, 0.5 h
[6] = biological target: T1, Adrenergic receptor alpha-2 (Homo sapiens, UniProt P08913+P18825+P18089); experiment: Agonist activity at human recombinant Alpha-2 adrenergic receptor expressed in CHOK1 cells after 30 mins by [35S]GTPgammaS binding assay; type: functional, cell-based; conditions: cho-k1
T1 sequence (P08913 whole entry): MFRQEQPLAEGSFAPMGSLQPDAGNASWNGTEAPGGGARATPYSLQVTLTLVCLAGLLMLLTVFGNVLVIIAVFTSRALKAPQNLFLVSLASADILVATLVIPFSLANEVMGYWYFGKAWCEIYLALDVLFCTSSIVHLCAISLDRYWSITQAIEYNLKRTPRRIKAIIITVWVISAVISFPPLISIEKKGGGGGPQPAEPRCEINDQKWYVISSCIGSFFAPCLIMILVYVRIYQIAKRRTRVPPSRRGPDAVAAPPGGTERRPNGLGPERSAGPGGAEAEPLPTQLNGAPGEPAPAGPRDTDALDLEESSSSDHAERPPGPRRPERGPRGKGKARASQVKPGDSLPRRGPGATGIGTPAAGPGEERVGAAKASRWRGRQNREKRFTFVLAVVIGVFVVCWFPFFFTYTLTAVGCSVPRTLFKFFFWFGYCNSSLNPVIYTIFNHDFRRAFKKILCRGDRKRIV
T1 sequence (P18825 whole entry): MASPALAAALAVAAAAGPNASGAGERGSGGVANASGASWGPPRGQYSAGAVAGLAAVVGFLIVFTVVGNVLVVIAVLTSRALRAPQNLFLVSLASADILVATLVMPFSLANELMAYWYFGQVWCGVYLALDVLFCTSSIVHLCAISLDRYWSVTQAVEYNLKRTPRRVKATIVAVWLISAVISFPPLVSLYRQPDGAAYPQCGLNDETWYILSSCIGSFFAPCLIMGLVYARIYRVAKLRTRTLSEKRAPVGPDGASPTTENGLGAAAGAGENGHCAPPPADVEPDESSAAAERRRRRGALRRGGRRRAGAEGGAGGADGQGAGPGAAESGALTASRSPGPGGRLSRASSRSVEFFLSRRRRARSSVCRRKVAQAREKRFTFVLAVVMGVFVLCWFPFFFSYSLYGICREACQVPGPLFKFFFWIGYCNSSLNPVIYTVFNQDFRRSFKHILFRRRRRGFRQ
T1 sequence (P18089 whole entry): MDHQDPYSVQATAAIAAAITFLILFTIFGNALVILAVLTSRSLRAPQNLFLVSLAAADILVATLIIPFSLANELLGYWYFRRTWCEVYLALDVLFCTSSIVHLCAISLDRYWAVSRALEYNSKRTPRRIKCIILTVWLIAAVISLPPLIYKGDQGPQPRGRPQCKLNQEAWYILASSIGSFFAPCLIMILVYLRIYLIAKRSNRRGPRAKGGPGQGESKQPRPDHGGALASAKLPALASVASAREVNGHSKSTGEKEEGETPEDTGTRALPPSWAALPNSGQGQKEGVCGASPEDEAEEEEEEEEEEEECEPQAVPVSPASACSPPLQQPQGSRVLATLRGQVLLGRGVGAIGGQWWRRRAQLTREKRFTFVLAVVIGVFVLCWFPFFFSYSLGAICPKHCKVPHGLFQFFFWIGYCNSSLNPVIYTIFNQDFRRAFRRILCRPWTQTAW

Compound	Activity (Rattus norvegicus [1])	Activity (Rattus norvegicus [2])	Activity (Rattus norvegicus [3])	Activity (Rattus norvegicus [4])	Activity (Rattus norvegicus [5])	EC50 [6]
Cl.Clc1cccc2ccn(CC3=NCCN3)c12	Toxic	Non-toxic	Non-toxic	Non-toxic	Non-toxic	3600 nM
Br.Cc1cccc2ccn(CC3=NCCN3)c12	–	–	–	–	–	7.9 nM
